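Five concentrations, 48 hours, 96-well plates. Abbreviation: GI50, concentration required for 50% inhibition of growth.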 The source made the active and inactive calls. Rule as the data show it: active = GI50 up to about 1.1 µM and inactive = higher.
Legend:
Test in all cases: NCI anticancer screen, dose series, 48 h
786-0 = system: 786-0
A498 = system: A498
A549 = system: A549
ACHN = system: ACHN
BT-549 = system: BT-549
CAKI-1 = system: CAKI-1
CCRF-CEM = system: CCRF-CEM
COLO 205 = system: COLO 205
DU-145 = system: DU-145
EKVX = system: EKVX
HCC 2998 = system: HCC 2998
HCT-116 = system: HCT-116
HCT-15 = system: HCT-15
HL-60 = system: HL-60
HOP-62 = system: HOP-62
HOP-92 = system: HOP-92
HT-29 = system: HT-29
Hs-578T = system: Hs-578T
IGROV-1 = system: IGROV-1
K562 = system: K562
KM12 = system: KM12
LOX IMVI = system: LOX IMVI
M14 = system: M14
MCF7 = system: MCF7
MDA-MB-231 = system: MDA-MB-231
MDA-MB-435 = system: MDA-MB-435
MDA-N = system: MDA-N
MOLT-4 = system: MOLT-4
NCI-H226 = system: NCI-H226
NCI-H23 = system: NCI-H23
NCI-H460 = system: NCI-H460
NCI-H522 = system: NCI-H522
NCI/ADR-RES = system: NCI/ADR-RES
OVCAR-3 = system: OVCAR-3
OVCAR-4 = system: OVCAR-4
OVCAR-5 = system: OVCAR-5
OVCAR-8 = system: OVCAR-8
PC-3 = system: PC-3
RPMI-8226 = system: RPMI-8226
RXF 393 = system: RXF 393
SF-268 = system: SF-268
SF-295 = system: SF-295
SF-539 = system: SF-539
SK-MEL-28 = system: SK-MEL-28
SK-MEL-2 = system: SK-MEL-2
SK-MEL-5 = system: SK-MEL-5
SK-OV-3 = system: SK-OV-3
SN12C = system: SN12C
SNB-19 = system: SNB-19
SNB-75 = system: SNB-75
SR = system: SR
SW-620 = system: SW-620
T47D = system: T47D
TK-10 = system: TK-10
U-251 = system: U-251
UACC-257 = system: UACC-257
UACC-62 = system: UACC-62
UO-31 = system: UO-31

## CCc1[nH]c(=O)nc(N)c1-c1ccc(N2CCCCC2)c([N+](=O)[O-])c1
786-0
  GI50: > 100 µM (inactive)
A498
  GI50: > 100 µM (inactive)
A549
  GI50: > 100 µM (inactive)
ACHN
  GI50: > 100 µM (inactive)
BT-549
  GI50: > 100 µM (inactive)
CAKI-1
  GI50: > 100 µM (inactive)
CCRF-CEM
  GI50: > 100 µM (inactive)
COLO 205
  GI50: > 100 µM (inactive)
DU-145
  GI50: > 100 µM (inactive)
EKVX
  GI50: > 100 µM (inactive)
HCC 2998
  GI50: > 100 µM (inactive)
HCT-116
  GI50: > 100 µM (inactive)
HCT-15
  GI50: > 100 µM
HL-60
  GI50: 88.7 µM (inactive)
HOP-62
  GI50: > 100 µM (inactive)
HOP-92
  GI50: > 100 µM (inactive)
HT-29
  GI50: > 100 µM (inactive)
Hs-578T
  GI50: 53.2 µM (inactive)
IGROV-1
  GI50: > 100 µM (inactive)
K562
  GI50: > 100 µM (inactive)
KM12
  GI50: > 100 µM (inactive)
LOX IMVI
  GI50: > 100 µM (inactive)
M14
  GI50: > 100 µM (inactive)
MCF7
  GI50: > 100 µM (inactive)
MDA-MB-231
  GI50: 98.4 µM (inactive)
MDA-MB-435
  GI50: > 100 µM (inactive)
MDA-N
  GI50: > 100 µM (inactive)
MOLT-4
  GI50: > 100 µM (inactive)
NCI-H226
  GI50: > 100 µM (inactive)
NCI-H23
  GI50: > 100 µM (inactive)
NCI-H460
  GI50: > 100 µM (inactive)
NCI-H522
  GI50: > 100 µM (inactive)
NCI/ADR-RES
  GI50: > 100 µM (inactive)
OVCAR-3
  GI50: > 100 µM (inactive)
OVCAR-4
  GI50: > 100 µM (inactive)
OVCAR-5
  GI50: > 100 µM (inactive)
OVCAR-8
  GI50: > 100 µM (inactive)
PC-3
  GI50: > 100 µM (inactive)
RPMI-8226
  GI50: > 100 µM (inactive)
RXF 393
  GI50: > 100 µM (inactive)
SF-268
  GI50: > 100 µM (inactive)
SF-295
  GI50: > 100 µM (inactive)
SF-539
  GI50: > 100 µM (inactive)
SK-MEL-28
  GI50: > 100 µM (inactive)
SK-MEL-2
  GI50: > 100 µM (inactive)
SK-MEL-5
  GI50: > 100 µM (inactive)
SK-OV-3
  GI50: > 100 µM (inactive)
SN12C
  GI50: > 100 µM (inactive)
SNB-19
  GI50: > 100 µM (inactive)
SNB-75
  GI50: > 100 µM (inactive)
SR
  GI50: > 100 µM (inactive)
SW-620
  GI50: > 100 µM (inactive)
T47D
  GI50: > 100 µM (inactive)
TK-10
  GI50: > 100 µM (inactive)
U-251
  GI50: > 100 µM (inactive)
UACC-257
  GI50: > 100 µM (inactive)
UACC-62
  GI50: > 100 µM (inactive)
UO-31
  GI50: > 100 µM (inactive)

— ChEMBL document CHEMBL1201862, “PubChem BioAssay data set” (2004)
